The record followed here is BindingDB's records for doi:10.1016/j.bmcl.2008.01.016 (Merck Research Laboratories, 2008).

For orientation: IC50 means the concentration that gives 50% inhibition.

This assay can be described thus: Antagonist activity at human CCR2 assessed as inhibition of MCP1-induced monocyte chemotaxis.

As for `C[C@H]1CN([C@@H]2CC[C@@]3(CCO[C@H]3OCc3cc(F)cc(C(F)(F)F)c3)C2)CC[C@@]12C=Cc1ccccc12`, the IC50 stood at 2.5 nM.
